Reference: article PMC10544029, “Design, Synthesis, and Application of Fluorescent Ligands Targeting the Intracellular Allosteric Binding Site of the CXC Chemokine Receptor 2” (Journal of Medicinal Chemistry, 2023)

Key:
[1] = system: SNAP-tagged CXCR2-tsNanoLuc HEK293; assay: Live cell imaging of fluorescent ligand binding to SNAP-tagged CXCR2-tsNanoLuc HEK293; format: cell-based, human; conditions: 1 μM 11a, 10 min at 37 °C, specific, displaced by 10 μM 2
Procedure: HEK 293 cells expressing SNAP-CXCR2-tsNanoLuc were seeded on black, clear bottom, poly-D-lysine-coated 96-well plates (Greiner 655097) at a density of 30,000 cells/well and allowed to grow overnight. Post-incubation, growth media were replaced with Hepes balances salt solution supplemented with 0.1% BSA (HBSS +0.1% BSA), 0.1 μM SNAP-surface AF488, 2 μg/mL Hoechst 33342 nuclear stain (H33342), and either HBSS +0.1% BSA or 10 μM (R)-navarixin (2).

CXCR1 = biological target: T1, CXCR1 (Homo sapiens, UniProt P25024); assay: CXCR1-NanoLuc NanoBRET saturation binding in membranes; conditions: result in words
T1 construct: expressed in transfected cells; membranes
T1 sequence (P25024 1-350): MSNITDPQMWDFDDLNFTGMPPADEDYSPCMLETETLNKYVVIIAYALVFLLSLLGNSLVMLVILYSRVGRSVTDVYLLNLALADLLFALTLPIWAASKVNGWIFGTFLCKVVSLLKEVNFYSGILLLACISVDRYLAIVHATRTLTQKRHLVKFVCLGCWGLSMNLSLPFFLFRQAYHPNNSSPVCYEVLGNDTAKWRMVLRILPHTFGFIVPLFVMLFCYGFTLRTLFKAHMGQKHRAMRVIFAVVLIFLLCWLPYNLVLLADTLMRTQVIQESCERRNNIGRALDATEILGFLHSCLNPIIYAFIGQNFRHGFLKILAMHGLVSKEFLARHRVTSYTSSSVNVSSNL
Procedure: NanoBRET assays were carried out in OptiPlate-384 white well microplates (product number: 6007290, PerkinElmer LAS Ltd., UK) and used 25 mM HEPES, 1% DMSO, 0.1 mg/mL Saponin, 0.2 mg Pluronic acid F127, 1 mM MgCl2 and 0.1% BSA (pH 7.4) assay buffer. Both saturation and competition assays employed 1 μg/well HEK 293 SNAP-CXCR2-NanoLuc or SNAP-CXCR1-NanoLuc cell membranes for characterization of fluorescent ligand binding and employed 100 nM or 10 μM R-navarixin (2) to define non-specific binding (NSB). […] Membranes were incubated with furimazine at a 1/660 dilution for 5 min prior to addition to the assay plate, allowing for equilibration of luminescence output. NanoBRET was monitored every 15 s for 60 min at 37 °C measuring Nanoluciferase output (450 nm) and BODIPY 630–650 output (630 nm [610-LP filter]), generating a BRET ratio (630 nm/450 nm), using a BMG PHERAstar FS (BMG Labtech). Collected data was converted to specific binding measurements through subtraction of NSB data and analyzed by endpoint saturation analysis, allowing determination of ligand dissociation constant (KD) through [drawing 1] 1

[2] = Chemical stability on purification and isolation; format: physicochemical; conditions: purification by normal and reverse-phase chromatography

chemical stability [2]	Compound	fluorescent labelling of cells [1]	CXCR1 specific binding (CXCR1)
–	CC[C@@H](Nc1c(Nc2cccc(C(=O)NCCNC(=O)CCCCCNC(=O)COc3ccc(/C=C/C4=[N+]5C(=Cc6ccc(-c7cccs7)n6[B-]5(F)F)C=C4)cc3)c2O)c(=O)c1=O)c1ccc(C)o1 [11a, (R,E)-N-(2-(6-(2-(4-(2-(5,5-Difluoro-7-(thiophen-2-yl)-5H-4λ4,5λ4-dipyrrolo[1,2-c:2’,1’-f][1,3,2]diazaborinin-3-yl)vinyl)phenoxy)acetamido)hexanamido)ethyl)-2-hydroxy-3-((2-((1-(5-methylfuran-2-yl)propyl)amino)-3,4-dioxocyclobut-1-en-1-yl)amino)benzamide]	both cell surface and intracellular endosomal fluorescent labelling	no CXCR1 specific binding
–	CC[C@@H](Nc1c(Nc2cccc(C(=O)NCCNC(=O)CCNC(=O)CCCCCNC(=O)COc3ccc(/C=C/C4=[N+]5C(=Cc6ccc(-c7cccs7)n6[B-]5(F)F)C=C4)cc3)c2O)c(=O)c1=O)c1ccc(C)o1 [11e, (R,E)-N-(2-(3-(6-(2-(4-(2-(5,5-Difluoro-7-(thiophen-2-yl)-5H-4λ4,5λ4-dipyrrolo[1,2-c:2′,1′-f][1,3,2]diazaborinin-3-yl)vinyl)phenoxy)acetamido)hexanamido)propanamido)ethyl)-2-hydroxy-3-((2-((1-(5-methylfuran-2-yl)propyl)amino)-3,4-dioxocyclobut-1-en-1-yl)amino)benzamide]	–	no CXCR1 specific binding
chemically unstable	CC[C@@H](Nc1c(Nc2cccc(C(=O)N(C)CCNC(=O)OCC3c4ccccc4-c4ccccc43)c2O)c(=O)c1=O)c1ccc(C)o1 [10b, (9H-Fluoren-9-yl)methyl(R)-(2-(2-hydroxy-N-methyl-3-((2-((1-(5-methylfuran-2-yl)propyl)amino)-3,4-dioxocyclobut-1-en-1-yl)amino)benzamido)ethyl)carbamate]	–	–
–	CC[C@@H](Nc1c(Nc2cccc(C(=O)NCCNC(=O)CNC(=O)CCCCCNC(=O)COc3ccc(/C=C/C4=[N+]5C(=Cc6ccc(-c7cccs7)n6[B-]5(F)F)C=C4)cc3)c2O)c(=O)c1=O)c1ccc(C)o1 [11c, (R,E)-N-(2-(2-(6-(2-(4-(2-(5,5-Difluoro-7-(thiophen-2-yl)-5H-4λ4,5λ4-dipyrrolo[1,2-c:2′,1′-f][1,3,2]diazaborinin-3-yl)vinyl)phenoxy)acetamido)hexanamido)acetamido)ethyl)-2-hydroxy-3-((2-((1-(5-methylfuran-2-yl)propyl)amino)-3,4-dioxocyclobut-1-en-1-yl)amino)benzamide]	–	no CXCR1 specific binding
